# Literature values in patent US10201964B2, “Treatment for reducing the toxicity of 3D-printed parts” (The Regents of the University of California, priority 2015, dated 2019).
# Columns and labels:
# [1] = when used as scaffolds
SMILES,toxic effects on embryonic and fetal development (rat fetuses),cardiovascular failure [1]
C=CC(=O)O [acrylic acid],toxic effects on embryonic and fetal development in rat fetuses,–
C=C(C)C(=O)O [methacrylic acid],toxic effects on embryonic and fetal development in rat fetuses,–
C=C(C)C(=O)OC [methylmethacrylate],–,associated with irreversible cardiovascular failure
